In patent US6040320A, “2-substituted imidazoles useful in the treatment of inflammatory diseases” (Ortho-McNeil Pharmaceutical, Inc., priority 1998, dated 2000):
Read-outs that look alike come from different tables or passages of the source. Each block holds one molecule with its values, some of them ahead of it.

Tests used:
TNF-α [1] = experiment: in vitro whole cell assay: LPS-stimulated TNF-α production in PBMC (ELISA); assay type: cell-based, human; conditions: for IC50: read-out: TNF-α IC50
Description: In addition to the enzyme assay, the compounds of the invention were tested in an in vitro whole cell assay using peripheral blood mononuclear cells ("PBMC") which were obtained from human blood as follows. Freshly obtained venous blood was anticoagulated with heparin, diluted with an equal volume of phosphate buffered saline ("PBS") and placed in a sterile tube or other container. Aliquots (30 mL) of this mixture were transferred to centrifuge tubes which were underlaid with Ficoll-Hypaque (15 mL). The prepared tubes were centrifuged at 400×g without braking for 30 min at room temperature. Approximately 1/2 to 2/3 of the platelet layer above the mononuclear cell band was removed with a pipet. The majority of the mononuclear cell layer was carefully removed using a pipet and these PBMCs were diluted with PBS and spun at 600×g for 15 min. The resulting PBMCs were washed with another portion of PBS and spun at 400×g for 10 min at room temperature. The recovered pellets were diluted in low endotoxin RPMI/1% FCS culture medium and gave a cell concentration of 0.5-2.0 X 10^6 PMBC/mL. A small volume of the suspension was removed for counting on a hemocytometer and the remaining preparation was centrifuged at 200×g for 15 min at room temperature. The recovered pelleted PMBC were resuspended in RPMI/1% FCS to a concentration of 1.67×10^6 /mL.
To run the assay, the PBMC suspension (180 μL) was transferred to duplicate wells of a 96-well flat-bottom microtiter plate and incubated for 1 h at 37° C. A solution of test compound (10 μL: prepared at 20×the desired final concentration) was added to each well and the plate was incubated for 1 h at 37° C. A solution (10 μL) of LPS in RPMI/1% FCS (200 ng/mL) was added and the wells were incubated overnight at 37° C. The supernate (100 μL) was removed from each well and diluted with RPMI/1% FCS (400 μL). The samples were analyzed for TNF-α using a commercial ELISA kit (Genzyme). […] Since imidazoles which are unsubstituted at the 1-position are subject to tautomerization, the substituents listed for R1 and R2 are interchangeable when R3 is hydrogen.

p38 = biological target: T1, p38 (Homo sapiens, UniProt Q16539); experiment: in vitro inhibition of p38 (CPSB): purified recombinant 6xHis-p38, myelin basic protein substrate, 33P-ATP; assay type: biochemical
T1 construct: 6xHis (N); made in house; host or cells: E. coli
T1 sequence (Q16539 whole entry): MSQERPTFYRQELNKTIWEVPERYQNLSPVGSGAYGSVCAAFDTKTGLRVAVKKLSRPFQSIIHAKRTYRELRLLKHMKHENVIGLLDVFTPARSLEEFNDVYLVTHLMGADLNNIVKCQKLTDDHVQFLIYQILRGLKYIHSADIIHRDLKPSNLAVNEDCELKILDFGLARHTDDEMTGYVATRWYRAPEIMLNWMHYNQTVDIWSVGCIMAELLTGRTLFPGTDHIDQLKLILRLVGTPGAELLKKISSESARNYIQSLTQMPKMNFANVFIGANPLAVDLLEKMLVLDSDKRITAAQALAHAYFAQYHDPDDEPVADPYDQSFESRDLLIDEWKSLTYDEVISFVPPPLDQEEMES
Description: Compounds of the invention were measured for their ability to inhibit the activity of p38 by the following in vitro assay.
A solution (38 μL) of purified recombinant p38 (where the amount of enzyme was determined empirically considering the linear range of the assay and the acceptable signal to noise ratio; 6xHis-p38 expressed in E.coli), myelin basic protein substrate (also determined empirically), a buffer of pH 7.5 (Hepes:25 mM, MgCl2 :10 mM, MnCl2 :10 mM) were added to 92 wells of a 96-well round bottom polypropylene plate. The remaining wells were used for control ("CTRL") and background ("BKG"). The CTRL was prepared with the enzyme, substrate buffer and 2% DMSO, and the BKG was prepared with substrate buffer and 2% DMSO. A solution (12 μL) of the test compound in DMSO (compounds were diluted to 125 μM in 10% DMSO/H2 O and assayed at 25 μM where the final DMSO concentration was 2%) was added to the testing wells. The ATP/^33 P-ATP solution (10 μL: containing 50 μM unlabeled ATP and 1 μCi ^33 P-ATP) was added to all wells and the completed plates were mixed and incubated at 30° C. for 30 min. Icecold 50% TCA/10 mM sodium phosphate (60 μL) were added to each well and the plates were kept on ice for 15 min. The contents of each well were transferred to the wells of a 96-well filterplate (Millipore, MultiScreen-DP) and the filterplate was placed on a vacuum manifold, fitted with a waste collection tray. The wells were washed five times with 10% TCA/10 mM sodium phosphate (200 μL) under vacuum. MicroScint-20 scintillant was added, the plates were sealed using Topseal-S sheets and counted in a Packard TopCount scintillation counter using a ^33 P liquid program with color quench correction, where the output is in color quench-corrected cpm. The % inhibition of the test compounds was calculated by the following formula: % inhibition=[1-(sample-BKG)/(CTRL-BKG)]×100.
Although compounds were initially tested at 25 μM, if warranted the compounds were tested at 4-fold increments above and below that concentration. In addition, lC50 s were calculated for some compounds using the Deltagraph 4-parameter curve fitting program.

TNF-α [2] = experiment: in vivo rodent assay: inhibition of LPS induced TNF-α production, mouse; conditions: oral, 25 mg/kg, LPS 1 mg/kg i.p.
Description: Mice (BALB / cJ females, Jackson Laboratories) or rats (Lewis males, Charles River) were fasted for 30 min prior to oral dosing with 5-10 mL/kg of test compound at 5-50 mg/kg. Thirty minutes after dosing, the animals were injected intraperitoneally with LPS at 1 mg/kg and returned to their cages for I h. Animals were anesthetized by CO2, exsanguinated by cardiac puncture and whole blood collected (0.1-0.7 mL). The blood was allowed to clot and serum was transferred to a centrifuge tube. This sample was centrifuged, serum was collected, aliquoted and frozen at -80° C. Samples were tested by commercial ELISAs for TNF-α (Endogen for mouse TNF-α and Biosource for rat TNF-α). Compounds 15 and 56 inhibited TNF-α production in the mouse at 88% and 37% respectively at a dose of 25 mg/kg.

IL-1β = experiment: in vitro IL-1β production by LPS-stimulated plastic-adherent cells from PBMC (ELISA); assay type: cell-based; conditions: adherent cells from human PBMC, read-out: inhibited the production of IL-1B, IC50
Description: Aliquots (30 mL) of this mixture were transferred to centrifuge tubes which were underlaid with Ficoll-Hypaque (15 mL). The prepared tubes were centrifuged at 400×g without braking for 30 min at room temperature. […] A small volume of the suspension was removed for counting on a hemocytometer and the remaining preparation was centrifuged at 200×g for 15 min at room temperature.

SMILES: CC(=O)OCCCCc1nc(-c2ccc(F)cc2)c(-c2ccncc2)n1Cc1ccccc1 [Compound 17, 4-[1-Benzyl-4-(4-fluorophenyl)-5-(4-pyridyl)imidazol-2-yl]butyl acetate]
IC50 (TNF-α [1]; Homo sapiens, PBMC): 0.5 µM | IC50 (p38): 2.63 µM

SMILES: OCCCCc1nc(-c2ccncc2)c(-c2ccc(F)cc2)[nH]1 [Compound 16b, 4-[5(4)-(4-Fluorophenyl)4(5)-(4-pyridyl)imidazol-2-yl]butanol]
IC50 (TNF-α [1]; Homo sapiens, PBMC): 0.01 µM | IC50 (p38): 1.59 µM

SMILES: O=C(NCCCSc1nc(-c2ccncc2)c(-c2ccc(F)cc2)[nH]1)c1cccs1 [Compound 4, 5(4)-(4-Fluorophenyl)-2-(3-(thien-2-ylamido)prop-1-yl)thio-4(5)-(4-pyridyl)-imidazole]
IC50 (TNF-α [1]; Homo sapiens, PBMC): 0.01 µM | IC50 (p38): 1.25 µM

SMILES: O=C(NCCCSc1nc(-c2ccncc2)c(-c2ccc(F)cc2)[nH]1)c1ccccc1 [Compound 26]
IC50 (TNF-α [1]; Homo sapiens, PBMC): 0.1 µM | IC50 (p38): 2.18 µM

SMILES: O=C1c2ccccc2C(=O)N1CCCCSc1nc(-c2ccncc2)c(-c2ccc(F)cc2)[nH]1 [Compound 27]
IC50 (TNF-α [1]; Homo sapiens, PBMC): 2 µM | IC50 (p38): 2.46 µM

SMILES: CC(=O)OCCCCc1nc(-c2ccncc2)c(-c2ccc(F)cc2)n1COCC[Si](C)(C)C [Compound 45]
TNF-α inhibition in words (TNF-α [1]; human PBMC, LPS): inactive | CPSB % inhibition (p38; @ 20 μm): 8%

SMILES: O=C(NCCCSc1nc(-c2ccncc2)c(-c2ccc(F)cc2)[nH]1)c1cccc2ccccc12 [Compound 28]
IC50 (TNF-α [1]; Homo sapiens, PBMC): 0.097 µM | IC50 (IL-1β): 0.086 µM | IC50 (p38): 1.25 µM

SMILES: O=C1c2ccccc2C(=O)N1CCCCc1nc(-c2ccncc2)c(-c2ccc(F)cc2)n1Cc1ccccc1 [Compound 43]
CPSB % inhibition (p38; @ 5 μm): 8%

SMILES: O=Cc1nc(-c2ccncc2)c(-c2ccc(F)cc2)[nH]1 [Compound 8, 5(4)-(4-Fluorophenyl)-4(5)-(4-pyridyl)-2-imidazole carboxaldehyde]
IC50 (TNF-α [1]; Homo sapiens, PBMC): 0.14 µM | IC50 (p38): 0.8 µM

SMILES: C[Si](C)(C)CCOCn1c(CCCCO)nc(-c2ccncc2)c1-c1ccc(F)cc1 [Compound 46]
TNF-α inhibition in words (TNF-α [1]; human PBMC, LPS): inactive | CPSB % inhibition (p38; @ 20 μm): 9%

SMILES: O=C1c2ccccc2C(=O)N1CCCSc1nc(-c2ccc(F)cc2)c(-c2ccncc2)[nH]1 [Compound 2, 5(4)-(4-Fluorophenyl)-2-(3-phthalimidoprop-1-yl)thio-4(5)-(4-pyridyl)-imidazole]
IC50 (TNF-α [1]; Homo sapiens, PBMC): 1 µM | IC50 (p38): 0.79 to 1.8 µM

More lines, main results first:

IC50 (p38): 2 µM
SMILES: CCOC(CCSc1nc(-c2ccncc2)c(-c2ccc(F)cc2)[nH]1)OCC [Compound 20]

IC50 (p38): 0.47 µM
SMILES: CC(C)Sc1nc(-c2ccncc2)c(-c2ccc(F)cc2)[nH]1 [Compound 22]

IC50 (TNF-α [1]; human PBMC, LPS): 0.03 µM
SMILES: O=C1c2ccccc2C(=O)N1CCCn1c(CO)nc(-c2ccc(F)cc2)c1-c1ccncc1 [Compound 56]
inhibited TNF-α production in the mouse (TNF-α [2]): 37%

IC50 (TNF-α [1]; human PBMC, LPS): 0.04 µM
SMILES: O=S(=O)(CCO)Cc1nc(-c2ccncc2)c(-c2ccc(F)cc2)[nH]1 [Compound 15, 5-(4-Fluorophenyl)-2-[4-hydroxy-2-sulfonyl-but-1-yl]-4-(4-pyridyl)-imidazole]
inhibited TNF-α production in the mouse (TNF-α [2]): 88%

IC50 (p38): 0.75 µM
SMILES: C=CCSc1nc(-c2ccncc2)c(-c2ccc(F)cc2)[nH]1 [Compound 37]

CPSB % inhibition (p38; @ 20 μm): 81%
SMILES: CNC(=O)Sc1nc(-c2ccc(F)cc2)c(-c2ccncc2)[nH]1 [Compound 5, 5(4)-(4-Fluorophenyl)-2-(N-methylaminocarbonyl)thio-4(5)-(4-pyridyl)-imidazole]

CPSB % inhibition (p38; @ 5 μm): 10%
SMILES: CC(=O)OCCCCc1nc(-c2ccncc2)c(-c2ccc(F)cc2)n1C(=O)OCc1ccccc1 [Compound 18]

IC50 (TNF-α [1]; human PBMC, LPS): 0.112 µM | CPSB % inhibition (p38; @ 20 μm): 91%
SMILES: O=C(NCCCSc1nc(-c2ccc(F)cc2)c(-c2ccncc2)[nH]1)c1ccco1 [Compound 29]

IC50 (p38): 1 to 1.8 µM
SMILES: Fc1ccc(-c2[nH]c(SCC3CC3)nc2-c2ccncc2)cc1 [Compound 23]

IC50 (TNF-α [1]; human PBMC, LPS): 0.5 µM | CPSB % inhibition (p38; @ 5 μm): 52%
SMILES: O=C1c2ccccc2C(=O)N1CCSc1nc(-c2ccc(F)cc2)c(-c2ccncc2)[nH]1 [Compound 25]

IC50 (TNF-α [1]; human PBMC, LPS): 0.4 µM | IC50 (IL-1β): 0.8 µM
SMILES: O=C(CCCO)c1nc(-c2ccncc2)c(-c2ccc(F)cc2)[nH]1 [Compound 10, 4-Hydroxy-1-[5-(4-fluorophenyl)-4-(4-pyridyl)-imidazol-2-yl]butanone]

IC50 (TNF-α [1]; human PBMC, LPS): 0.055 µM | IC50 (IL-1β): 0.35 µM
SMILES: CCCS(=O)(=O)Cc1nc(-c2ccncc2)c(-c2ccc(F)cc2)[nH]1 [Compound 59]

IC50 (TNF-α [1]; human PBMC, LPS): 0.1 µM | CPSB % inhibition (p38; @ 20 μm): 92%
SMILES: O=S(=O)(NCCCSc1nc(-c2ccc(F)cc2)c(-c2ccncc2)[nH]1)c1ccccc1 [Compound 30]
